In US20240108006A1, “PESTICIDALLY ACTIVE HETEROAROMATIC COMPOUNDS” (SYNGENTA CROP PROTECTION AG, priority 2021, published 2024):

What was measured:
Myzus persicae [1] = test: Example B5: Myzus persicae (green peach aphid), feeding/contact activity; format: in vivo; details: 144 h, application rate of 200 ppm, 6 days after infestation
Protocol: Example B5: Myzus persicae (Green Peach Aphid):Feeding/Contact Activity
Sunflower leaf discs were placed onto agar in a 24-well microtiter plate and sprayed with aqueous test solutions prepared from 10,000 ppm DMSO stock solutions. After drying, the leaf discs were infested with an aphid population of mixed ages. The samples were assessed for mortality 6 days after infestation.

Chilo suppressalis = test: Example B1: Chilo suppressalis (striped rice stemborer), artificial diet, L2 larvae; format: in vivo; details: 144 h, application rate of 200 ppm, 6 days after infestation, read-out: control in at least one of the three categories (mortality, anti-feedant effect, or growth inhibition)
Summary of the method: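 L2 larvae (6-8 per well) were placed on dried artificial diet that had been dosed with aqueous dilutions of 10,000 ppm DMSO stock solutions. After 6 days, control was credited if mortality, antifeedant effect or growth inhibition was higher than in untreated samples.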

Myzus persicae [2] = test: Example B7: Myzus persicae (green peach aphid), intrinsic activity, sucrose solution 24-well; format: in vivo; details: 120 h, application rate of 12.5 ppm, 5 days after infestation, read-out: control (mortality)
Summary of the method: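 Compounds from 10,000 ppm DMSO stocks were mixed into sucrose solution in wells at a rate of 12.5 ppm. Aphid-infested pea seedlings were placed on a Parafilm membrane over the solution, so aphids fed through it. Mortality was scored 5 days after infestation.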

Euschistus heros = test: Example B3: Euschistus heros (neotropical brown stink bug), soybean leaves, N2 nymphs; format: in vivo; details: 120 h, application rate of 200 ppm, 5 days after infestation, read-out: control in at least one of the two categories (mortality or growth inhibition)
Protocol: Example B3: Euschistus heros (Neotropical Brown Stink Bug)
Soybean leaves on agar in 24-well microtiter plates were sprayed with aqueous test solutions prepared from 10,000 ppm DMSO stock solutions. After drying the leaves were infested with N2 nymphs. The samples were assessed for mortality and growth inhibition in comparison to untreated samples 5 days after infestation.
The following compounds gave an effect of at least 80% control in at least one of the two categories (mortality or growth inhibition) at an application rate of 200 ppm: […]

Diabrotica balteata = test: Example B2: Diabrotica balteata (corn root worm), maize sprouts, L2 larvae; format: in vivo; details: 96 h, application rate of 200 ppm, 4 days after infestation, read-out: control in at least one of the two categories (mortality or growth inhibition)
Summary of the method: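 Maize sprouts on agar sprayed with aqueous test solutions made from 10,000 ppm DMSO stocks, dried, then infested with 6 to 10 L2 larvae per well. Mortality and growth inhibition assessed versus untreated samples 4 days after infestation; application rate 200 ppm.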

Plutella xylostella = test: Example B8: Plutella xylostella (diamond back moth), artificial diet 24-well, eggs; format: in vivo; details: 192 h, application rate of 200 ppm, 8 days after infestation, read-out: effect in at least one of the two categories (mortality or growth inhibition)
Summary of the method: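 Plutella eggs placed onto dried, compound-treated artificial diet, the aqueous test solutions diluted from 10,000 ppm DMSO stocks. Eight days post-infestation, larvae rated for mortality and growth inhibition relative to untreated controls.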

Spodoptera littoralis = test: Example B9: Spodoptera littoralis (Egyptian cotton leaf worm), cotton leaf discs, L1 larvae; format: in vivo; details: foliar, 72 h, application rate of 200 ppm, 3 days after infestation, read-out: control in at least one of the three categories (mortality, anti-feedant effect, or growth inhibition)
Summary of the method: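 Five L1 larvae placed on sprayed, dried cotton leaf discs; spray solutions aqueous, from 10,000 ppm DMSO stocks. Control given when mortality, anti-feedant effect or growth inhibition exceeds untreated samples at 3 days.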

Myzus persicae [3] = test: Example B6: Myzus persicae (green peach aphid), systemic activity, pea seedlings; format: in vivo; details: 144 h, test rate of 24 ppm, 6 days after placing seedlings into test solutions
Protocol: Example B6: Myzus persicae (Green Peach Aphid). Systemic Activity
Roots of pea seedlings infested with an aphid population of mixed ages were placed directly into aqueous test solutions prepared from 10,000 DMSO stock solutions. The samples were assessed for mortality 6 days after placing seedlings into test solutions.

[4] = system: Frankliniella occidentalis; test: Example B4: Frankliniella occidentalis (western flower thrips), feeding/contact activity; format: in vivo; details: 168 h, application rate of 200 ppm, 7 days after infestation
Protocol: Example B4: Frankliniella occidentalis (Western Flower Thrips):Feeding/Contact Activity
Sunflower leaf discs were placed on agar in 24-well microtiter plates and sprayed with aqueous test solutions prepared from 10,000 DMSO stock solutions. After drying the leaf discs were infested with a Frankliniella population of mixed ages. The samples were assessed for mortality 7 days after infestation.

melting point [°C] | SMILES | percent control (mortality, anti-feedant effect or growth inhibition) at 200 ppm (Chilo suppressalis) [%] | mortality at 12.5 ppm (Myzus persicae [2]) [%] | percent control (mortality or growth inhibition) at 200 ppm (Euschistus heros) [%] | percent effect (mortality or growth inhibition) at 200 ppm (Plutella xylostella) [%] | percent control (mortality, anti-feedant effect or growth inhibition) at 200 ppm (Spodoptera littoralis) [%] | other results
 | Cc1cc(C(F)(F)F)ncc1NC(=O)N[C@@H](C)c1ncnn1-c1ncccn1 [Example P328, 1-[4-methyl-6-(trifluoromethyl)-3-pyridyl]-3-[(1S)-1-(2-pyrimidin-2-yl-1,2,4-triazol-3-yl)ethyl]urea] | ≥ 80 | ≥ 80 | ≥ 80 |  |  | mortality at 200 ppm (Myzus persicae [1]): ≥ 80%
 | CC(NC(=O)Nc1ccc(C(F)(F)F)cc1C(F)(F)F)c1ncnn1-c1ncccn1 (centres unmarked) [Example P1, 1-[2,4-bis(trifluoromethyl)phenyl]-3-[1-(2-pyrimidin-2-yl-1,2,4-triazol-3-yl)ethyl]urea] | ≥ 80 | ≥ 80 | ≥ 80 | ≥ 80 | ≥ 80 | percent control (mortality or growth inhibition) at 200 ppm (Diabrotica balteata): ≥ 80%
138 to 140 | C[C@@H]1CN(C(=O)c2ccc(-n3ncnc3[C@H](C)NC(=O)Nc3cc(C(F)(F)F)c(Cl)cc3Cl)nc2)C[C@H](C)O1 |  |  |  |  |  | 
220 to 222 | C[C@H](NC(=O)Nc1ccc(Br)c(Br)c1)c1nccnc1-c1ncccn1 |  |  |  |  |  | 
 | C[C@@H](c1ncnn1-c1ncccn1)N(C)C(=O)Nc1cnc(C(F)(F)F)cc1Cl [Example P397, 3-[4-chloro-6-(trifluoromethyl)-3-pyridyl]-1-methyl-1-[(1S)-1-(2-pyrimidin-2-yl-1,2,4-triazol-3-yl)ethyl]urea] | ≥ 80 | ≥ 80 | ≥ 80 | ≥ 80 |  | mortality at 24 ppm (Myzus persicae [3]): ≥ 80%
 | Cc1cccc(Cl)c1NC(=O)N[C@@H](C)c1ncnn1-c1ncccn1 [Example P71, 1-(2-chloro-6-methyl-phenyl)-3-[(1S)-1-(2-pyrimidin-2-yl-1,2,4-triazol-3-yl)ethyl]urea] |  |  |  |  |  | mortality at 200 ppm [4]: ≥ 80%
183 to 186 | C[C@H](NC(=O)Nc1cnc(C(F)(F)F)cc1I)c1ncnn1-c1ncccn1 |  |  |  |  |  | 
 | CC(NC(=O)Nc1cnc(C(F)(F)F)cc1Cl)c1nccnc1-c1ncccn1 (centres unmarked) [Example P244, 1-[4-chloro-6-(trifluoromethyl)-3-pyridyl]-3-[1-(3-pyrimidin-2-ylpyrazin-2-yl)ethyl]urea] | ≥ 80 | ≥ 80 |  | ≥ 80 | ≥ 80 | mortality at 24 ppm (Myzus persicae [3]): ≥ 80%; mortality at 200 ppm (Myzus persicae [1]): ≥ 80%
 | C[C@H](NC(=O)N(C)c1cnc(C(F)(F)F)cc1Br)c1ncnn1-c1ncccn1 [Example P273, 1-[4-bromo-6-(trifluoromethyl)-3-pyridyl]-1-methyl-3-[(1S)-1-(2-pyrimidin-2-yl-1,2,4-triazol-3-yl)ethyl]urea] | ≥ 80 | ≥ 80 | ≥ 80 | ≥ 80 | ≥ 80 | mortality at 24 ppm (Myzus persicae [3]): ≥ 80%
 | C[C@H](NC(=O)Nc1cc(OCc2ccc(Cl)cn2)c(Cl)cc1Cl)c1ncnn1-c1ncccn1 [Example P142, 1-[2,4-dichloro-5-[(5-chloro-2-pyridyl)methoxy]phenyl]-3-[(1S)-1-(2-pyrimidin-2-yl-1,2,4-triazol-3-yl)ethyl]urea] |  |  |  |  |  | mortality at 200 ppm [4]: ≥ 80%
124 to 127 | CC(NC(=O)Nc1cc(C(F)(F)F)cc(C(F)(F)F)c1)c1ncnn1-c1ncccn1 (centres unmarked) |  |  |  |  |  | 
236 to 249 | C[C@H](NC(=O)Nc1cc(Cl)c(Cl)cc1I)c1ncnn1-c1ncccn1 (stereo in doubt) |  |  |  |  |  | 
 | COc1cc(C(F)(F)F)ncc1NC(=O)N[C@@H](C)c1ncnn1-c1ncccn1 [Example P348, 1-[4-methoxy-6-(trifluoromethyl)-3-pyridyl]-3-[(1S)-1-(2-pyrimidin-2-yl-1,2,4-triazol-3-yl)ethyl]urea] | ≥ 80 | ≥ 80 | ≥ 80 |  | ≥ 80 | mortality at 24 ppm (Myzus persicae [3]): ≥ 80%; mortality at 200 ppm (Myzus persicae [1]): ≥ 80%
207 to 209 | C[C@@H](c1ncnn1-c1ncccn1)N1CCN(c2cc(OC(F)(F)C(F)F)c(Cl)cc2Cl)C1=O |  |  |  |  |  | 
 | Cc1cc2c(cc1NC(=O)N[C@@H](C)c1ncnn1-c1ncccn1)OCC(=O)N2 [Example P208, 1-(6-methyl-3-oxo-4H-1,4-benzoxazin-7-yl)-3-[(1S)-1-(2-pyrimidin-2-yl-1,2,4-triazol-3-yl)ethyl]urea] |  |  |  |  |  | mortality at 200 ppm [4]: ≥ 80%
 | C[C@H](NC(=O)Nc1cc(OC(F)(F)Cl)c(Cl)cc1F)c1ncnn1-c1ncccn1 [Example P219, 1-[4-chloro-5-[chloro(difluoro)methoxy]-2-fluoro-phenyl]-3-[(1S)-1-(2-pyrimidin-2-yl-1,2,4-triazol-3-yl)ethyl]urea] | ≥ 80 | ≥ 80 |  | ≥ 80 | ≥ 80 | percent control (mortality or growth inhibition) at 200 ppm (Diabrotica balteata): ≥ 80%; mortality at 200 ppm [4]: ≥ 80%
 | C[C@H](NC(=O)Nc1ccc(F)cc1C#N)c1ncnn1-c1ncccn1 [Example P62, 1-(2-cyano-4-fluoro-phenyl)-3-[(1S)-1-(2-pyrimidin-2-yl-1,2,4-triazol-3-yl)ethyl]urea] |  |  | ≥ 80 |  |  | mortality at 200 ppm (Myzus persicae [1]): ≥ 80%
 | C[C@H](NC(=O)Nc1cnc(C(F)(F)F)cc1Br)c1ncnn1-c1ncccn1 [Example P280, 1-[4-bromo-6-(trifluoromethyl)-3-pyridyl]-3-[(1S)-1-(2-pyrimidin-2-yl-1,2,4-triazol-3-yl)ethyl]urea] | ≥ 80 | ≥ 80 | ≥ 80 | ≥ 80 | ≥ 80 | percent control (mortality or growth inhibition) at 200 ppm (Diabrotica balteata): ≥ 80%; mortality at 200 ppm [4]: ≥ 80%
 | C[C@H](NC(=O)Nc1cc(F)c(Br)cc1OC(F)F)c1ncnn1-c1ncccn1 [Example P390, 1-[4-bromo-2-(difluoromethoxy)-5-fluoro-phenyl]-3-[(1S)-1-(2-pyrimidin-2-yl-1,2,4-triazol-3-yl)ethyl]urea] | ≥ 80 | ≥ 80 | ≥ 80 | ≥ 80 | ≥ 80 | percent control (mortality or growth inhibition) at 200 ppm (Diabrotica balteata): ≥ 80%
 | COC(=O)c1cc(Cl)c(Cl)cc1NC(=O)N[C@@H](C)c1ncnn1-c1ncccn1 [Example P199, methyl 4,5-dichloro-2-[[(1S)-1-(2-pyrimidin-2-yl-1,2,4-triazol-3-yl)ethyl]carbamoylamino]benzoate] |  |  |  |  |  | mortality at 200 ppm [4]: ≥ 80%
106 to 108 | C[C@H](NC(=S)Nc1cc(Cl)cc(C(F)(F)F)c1)c1ncnn1-c1ncccn1 |  |  |  |  |  | 
